How the values were obtained:
Format in all cases: in vivo
[1] = test system: Italian ryegrass (Lolium multiflorum); experiment: Test A postemergence application; conditions: approx. 10 days
Outline: (§1)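 Visual injury scores on a 0–100 scale (100 = complete control), taken roughly 10 days after treatment in greenhouse relative to untreated plants. Seeded pots got a preemergence directed soil spray; postemergence sprays hit one- to two-leaf plants, 2–10 cm; formulation: solvent mixture with surfactant.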

[2] = test system: barnyardgrass (Echinochloa crus-galli); experiment: Test A postemergence application; conditions: approx. 10 days
Outline: as §1

[3] = test system: blackgrass (Alopecurus myosuroides); experiment: Test A postemergence application; conditions: approx. 10 days
Outline: as §1

corn (Zea mays) [4] = experiment: Test A postemergence application; conditions: approx. 10 days
Outline: as §1

[5] = test system: galium (catchweed bedstraw, Galium aparine); experiment: Test A postemergence application; conditions: approx. 10 days
Outline: as §1

[6] = test system: giant foxtail (Setaria faberii); experiment: Test A postemergence application; conditions: approx. 10 days
Outline: as §1

kochia (Kochia scoparia) = experiment: Test A postemergence application; conditions: approx. 10 days
Outline: as §1

[7] = test system: pigweed (Amaranthus retroflexus); experiment: Test A postemergence application; conditions: approx. 10 days
Outline: as §1

[8] = test system: ragweed (common ragweed, Ambrosia elatior); experiment: Test A postemergence application; conditions: approx. 10 days
Outline: as §1

[9] = test system: wheat (Triticum aestivum); experiment: Test A postemergence application; conditions: approx. 10 days
Outline: as §1

[10] = test system: Italian ryegrass (Lolium multiflorum); experiment: Test C preemergence; conditions: scale 0 to 100, 0 is no effect, 100 is complete control
Description: (§2) Seeds of plant species selected from blackgrass (Alopecurus myosuroides), Italian ryegrass (Lolium multiflorum), winter wheat (Triticum aestivum), galium (catchweed bedstraw, Galium aparine), corn (Zea mays), large (Lg) crabgrass (Digitaria sanguinalis), giant foxtail (Setaria faberii), johnsongrass (Sorghum halepense), lambsquarters (Chenopodium album), morningglory (Ipomoea coccinea), yellow nutsedge (Cyperus esculentus), pigweed (Amaranthus retroflexus), ragweed (common ragweed, Ambrosia elatior), soybean (Glycine max), barnyardgrass (Echinochloa crus-galli), oilseed rape (Brassica napus), waterhemp (common waterhemp, Amaranthus rudis), and velvetleaf (Abutilon theophrasti) were planted into a blend of loam soil and sand and treated preemergence with test chemicals formulated in a non-phytotoxic solvent mixture which included a surfactant. At the same time, plants selected from these crop and weed species and also chickweed (common chickweed, Stellaria media), kochia (Kochia scoparia), and wild oat (Avena fatua), were planted in pots containing Sunshine Redi-Earth® planting medium comprising spaghnum peat moss, vermiculite, starter nutrients and dolomitic limestone and treated with postemergence applications of test chemicals formulated in the same manner. Plants ranged in height from 2 to 18 cm (1- to 4-leaf stage) for postemergence treatments. Treated plants and controls were maintained in a greenhouse for 13 to 15 days, after which time all species were compared to controls and visually evaluated. Plant response ratings, summarized in Table C, are based on a scale of 0 to 100 where 0 is no effect and 100 is complete control. A dash (-) response means no test result.

[11] = test system: blackgrass (Alopecurus myosuroides); experiment: Test C preemergence; conditions: scale 0 to 100, 0 is no effect, 100 is complete control
Description: as §2

corn (Zea mays) [12] = experiment: Test C preemergence; conditions: scale 0 to 100, 0 is no effect, 100 is complete control
Description: as §2

[13] = test system: johnsongrass (Sorghum halepense); experiment: Test C preemergence; conditions: scale 0 to 100, 0 is no effect, 100 is complete control
Description: as §2

[14] = test system: lambsquarters (Chenopodium album); experiment: Test C preemergence; conditions: scale 0 to 100, 0 is no effect, 100 is complete control
Description: as §2

[15] = test system: morningglory (Ipomoea coccinea); experiment: Test C preemergence; conditions: scale 0 to 100, 0 is no effect, 100 is complete control
Description: as §2

[16] = test system: oilseed rape (Brassica napus); experiment: Test C preemergence; conditions: scale 0 to 100, 0 is no effect, 100 is complete control
Description: as §2

[17] = test system: pigweed (Amaranthus retroflexus); experiment: Test C preemergence; conditions: scale 0 to 100, 0 is no effect, 100 is complete control
Description: as §2

[18] = test system: ragweed (common ragweed, Ambrosia elatior); experiment: Test C preemergence; conditions: scale 0 to 100, 0 is no effect, 100 is complete control
Description: as §2

soybean (Glycine max) = experiment: Test C preemergence; conditions: 31 g ai/ha, scale 0 to 100, 0 is no effect, 100 is complete control
Description: as §2

[19] = test system: waterhemp (common waterhemp, Amaranthus rudis); experiment: Test C preemergence; conditions: scale 0 to 100, 0 is no effect, 100 is complete control
Description: as §2

[20] = test system: yellow nutsedge (Cyperus esculentus); experiment: Test C preemergence; conditions: scale 0 to 100, 0 is no effect, 100 is complete control
Description: as §2

Question: Which “Plant response rating (0 to 100 scale, 0 no effect, 100 complete control), Ryegrass, Italian” value ([1]; 31 g ai/ha) does the source give for `O=c1cccc(Oc2ncc(Cl)cn2)n1-c1ccc(C(F)(F)F)cc1` [Compound 10] here?
Answer: Its value is 0.

Question: What about the “Plant response rating (0 to 100 scale, 0 no effect, 100 complete control), Ryegrass, Italian” value ([1]; 125 g ai/ha) of the same compound?
Answer: Its value is 60.

Question: What about the “Plant response rating (0 to 100 scale, 0 no effect, 100 complete control), Barnyardgrass” value ([2]; 31 g ai/ha) of the same compound?
Answer: The value was 40.

Question: What about the “Plant response rating (0 to 100 scale, 0 no effect, 100 complete control), Barnyardgrass” value ([2]; 125 g ai/ha) of the same compound?
Answer: The value was 90.

Question: And the “Plant response rating (0 to 100 scale, 0 no effect, 100 complete control), Blackgrass” value ([3]; 31 g ai/ha)?
Answer: Its value is 30.

Question: And the “Plant response rating (0 to 100 scale, 0 no effect, 100 complete control), Blackgrass” value ([3]; 125 g ai/ha)?
Answer: The value was 50.

Question: What about the “Plant response rating (0 to 100 scale, 0 no effect, 100 complete control), Corn” value (corn (Zea mays) [4]; 31 g ai/ha) of the same compound?
Answer: Its value is 20.

Question: And the “Plant response rating (0 to 100 scale, 0 no effect, 100 complete control), Corn” value (corn (Zea mays) [4]; 125 g ai/ha)?
Answer: The value was 30.

Question: What about the “Plant response rating (0 to 100 scale, 0 no effect, 100 complete control), Galium” value ([5]; 31 g ai/ha) of the same compound?
Answer: The value was 30.

Question: And the “Plant response rating (0 to 100 scale, 0 no effect, 100 complete control), Galium” value ([5]; 125 g ai/ha)?
Answer: The value was 80.

Question: And the “Plant response rating (0 to 100 scale, 0 no effect, 100 complete control), Foxtail, Giant” value ([6]; 31 g ai/ha)?
Answer: The value was 50.

Question: And the “Plant response rating (0 to 100 scale, 0 no effect, 100 complete control), Foxtail, Giant” value ([6]; 125 g ai/ha)?
Answer: The value was 90.

Question: And the “Plant response rating (0 to 100 scale, 0 no effect, 100 complete control), Kochia” value (kochia (Kochia scoparia); 31 g ai/ha)?
Answer: Its value is 80.

Question: And the “Plant response rating (0 to 100 scale, 0 no effect, 100 complete control), Kochia” value (kochia (Kochia scoparia); 125 g ai/ha)?
Answer: The value was 90.

Question: And the “Plant response rating (0 to 100 scale, 0 no effect, 100 complete control), Pigweed” value ([7]; 31 g ai/ha)?
Answer: Its value is 70.

Question: And the “Plant response rating (0 to 100 scale, 0 no effect, 100 complete control), Pigweed” value ([7]; 125 g ai/ha)?
Answer: Its value is 90.

Question: And the “Plant response rating (0 to 100 scale, 0 no effect, 100 complete control), Ragweed” value ([8]; 31 g ai/ha)?
Answer: The value was 10.

Question: What about the “Plant response rating (0 to 100 scale, 0 no effect, 100 complete control), Ragweed” value ([8]; 125 g ai/ha) of the same compound?
Answer: The value was 20.

Question: And the “Plant response rating (0 to 100 scale, 0 no effect, 100 complete control), Wheat” value ([9]; 31 g ai/ha)?
Answer: The value was 0.

Question: And the “Plant response rating (0 to 100 scale, 0 no effect, 100 complete control), Wheat” value ([9]; 125 g ai/ha)?
Answer: Its value is 10.

Question: And the “Plant response rating, Ryegrass, Italian” value ([10]; 16 g ai/ha)?
Answer: The value was 0.

Question: And the “Plant response rating, Ryegrass, Italian” value ([10]; 31 g ai/ha)?
Answer: Its value is 10.

Question: And the “Plant response rating, Ryegrass, Italian” value ([10]; 62 g ai/ha)?
Answer: The value was 90.

Question: And the “Plant response rating, Ryegrass, Italian” value ([10]; 125 g ai/ha)?
Answer: The value was 85.

Question: And the “Plant response rating, Blackgrass” value ([11]; 16 g ai/ha)?
Answer: The value was 15.

Question: And the “Plant response rating, Blackgrass” value ([11]; 31 g ai/ha)?
Answer: Its value is 60.

Question: And the “Plant response rating, Blackgrass” value ([11]; 62 g ai/ha)?
Answer: Its value is 95.

Question: What about the “Plant response rating, Blackgrass” value ([11]; 125 g ai/ha) of the same compound?
Answer: The value was 95.

Question: And the “Plant response rating, Corn” value (corn (Zea mays) [12]; 16 g ai/ha)?
Answer: The value was 0.

Question: What about the “Plant response rating, Corn” value (corn (Zea mays) [12]; 31 g ai/ha) of the same compound?
Answer: The value was 0.

Question: What about the “Plant response rating, Corn” value (corn (Zea mays) [12]; 62 g ai/ha) of the same compound?
Answer: Its value is 10.

Question: And the “Plant response rating, Corn” value (corn (Zea mays) [12]; 125 g ai/ha)?
Answer: The value was 5.

Question: What about the “Plant response rating, Johnsongrass” value ([13]; 16 g ai/ha) of the same compound?
Answer: The value was 0.

Question: And the “Plant response rating, Johnsongrass” value ([13]; 31 g ai/ha)?
Answer: Its value is 5.

Question: What about the “Plant response rating, Johnsongrass” value ([13]; 62 g ai/ha) of the same compound?
Answer: The value was 35.

Question: And the “Plant response rating, Johnsongrass” value ([13]; 125 g ai/ha)?
Answer: The value was 70.

Question: And the “Plant response rating, Lambsquarters” value ([14]; 16 g ai/ha)?
Answer: The value was 35.

Question: What about the “Plant response rating, Lambsquarters” value ([14]; 31 g ai/ha) of the same compound?
Answer: The value was 25.

Question: What about the “Plant response rating, Lambsquarters” value ([14]; 62 g ai/ha) of the same compound?
Answer: The value was 35.

Question: And the “Plant response rating, Lambsquarters” value ([14]; 125 g ai/ha)?
Answer: Its value is 75.

Question: What about the “Plant response rating, Morningglory” value ([15]; 16 g ai/ha) of the same compound?
Answer: The value was 0.

Question: And the “Plant response rating, Morningglory” value ([15]; 31 g ai/ha)?
Answer: The value was 0.

Question: And the “Plant response rating, Morningglory” value ([15]; 62 g ai/ha)?
Answer: Its value is 15.

Question: What about the “Plant response rating, Morningglory” value ([15]; 125 g ai/ha) of the same compound?
Answer: The value was 55.

Question: And the “Plant response rating, Oilseed Rape” value ([16]; 16 g ai/ha)?
Answer: The value was 0.

Question: What about the “Plant response rating, Oilseed Rape” value ([16]; 31 g ai/ha) of the same compound?
Answer: The value was 10.

Question: What about the “Plant response rating, Oilseed Rape” value ([16]; 62 g ai/ha) of the same compound?
Answer: The value was 70.

Question: What about the “Plant response rating, Oilseed Rape” value ([16]; 125 g ai/ha) of the same compound?
Answer: Its value is 80.

Question: What about the “Plant response rating, Pigweed” value ([17]; 16 g ai/ha) of the same compound?
Answer: Its value is 55.

Question: What about the “Plant response rating, Pigweed” value ([17]; 31 g ai/ha) of the same compound?
Answer: The value was 65.

Question: And the “Plant response rating, Pigweed” value ([17]; 62 g ai/ha)?
Answer: Its value is 100.

Question: What about the “Plant response rating, Pigweed” value ([17]; 125 g ai/ha) of the same compound?
Answer: Its value is 100.

Question: What about the “Plant response rating, Ragweed” value ([18]; 16 g ai/ha) of the same compound?
Answer: Its value is 35.

Question: What about the “Plant response rating, Ragweed” value ([18]; 31 g ai/ha) of the same compound?
Answer: The value was 25.

Question: What about the “Plant response rating, Ragweed” value ([18]; 62 g ai/ha) of the same compound?
Answer: Its value is 25.

Question: And the “Plant response rating, Ragweed” value ([18]; 125 g ai/ha)?
Answer: The value was 65.

Question: What about the “Plant response rating, Soybean” value (soybean (Glycine max)) of the same compound?
Answer: Its value is 20.

Question: And the “Plant response rating, Waterhemp” value ([19]; 16 g ai/ha)?
Answer: Its value is 70.

Question: And the “Plant response rating, Waterhemp” value ([19]; 31 g ai/ha)?
Answer: Its value is 95.

Question: What about the “Plant response rating, Waterhemp” value ([19]; 62 g ai/ha) of the same compound?
Answer: Its value is 100.

Question: What about the “Plant response rating, Waterhemp” value ([19]; 125 g ai/ha) of the same compound?
Answer: Its value is 100.

Question: And the “Plant response rating, Nutsedge, Yellow” value ([20]; 16 g ai/ha)?
Answer: Its value is 0.

Question: What about the “Plant response rating, Nutsedge, Yellow” value ([20]; 31 g ai/ha) of the same compound?
Answer: Its value is 0.

Question: What about the “Plant response rating, Nutsedge, Yellow” value ([20]; 62 g ai/ha) of the same compound?
Answer: Its value is 0.

Question: And the “Plant response rating, Nutsedge, Yellow” value ([20]; 125 g ai/ha)?
Answer: The value was 0.
